Results taken from patent US6780398B1, “Aqueous nasal formulation” (Glaxo Smithkline Kabushiki Kaisha, priority 1999, dated 2004).

System: Ps. cepacia
Experiment: Challenge test of BANS against Ps. cepacia (preservative effectiveness)
Format: cell-based, Pseudomonas cepacia (now known as Burkhoderia cepacia)
Details: phenylethylalcohol together with benzalkonium chloride in the formulation; FIG. 7
Text: 4) Challenge Test of BANS Against Ps. Cepacia
Formulations corresponding to BANS and the same formulation containing only 0.02% (w/w) benzalkonium chloride as preservative (i.e. no phenylethyl alcohol) and the same formulation containing only 0.275% (v/w) phenylethylalcohol as preservative (i.e. no benzalkonium chloride) were challenged with an innoculum of Ps cepacia.

OCCc1ccccc1 [phenylethylalcohol, Phenylethyl alcohol]
preservative properties by killing Pseudomonas cepacia: synergistic effect with benzalkonium chloride
